Measured values: patent US20240197608A1, “ACETYL SH-HEXAPEPTIDE-5 AMIDE ACETATE FOR USE IN THE TREATMENT OF HAIR LOSS DISORDERS AND AS A HAIR CARE AGENT” (L[…], S.A., priority 2021, published 2024)

How the values were obtained:
Assay type in all cases: cell-based
[1] = tested on: Insulin-like Growth Factor-1 (IGF1) gene expression; assay: IGF1 gene expression in Human Follicle Dermal Papilla Cells (RT-qPCR); conditions: HFDPC, 24 hours of incubation
Description: (§1) This assay determined the beneficial effect of the acetyl sh-hexapeptide-5 amide acetate in the reduction of the hair loss in an in vitro assay, using Dermal Papilla cells and analysed through gene expression analysis. In particular, this test determinate the effect of the acetyl sh-hexapeptide-5 amide acetate alone or in combination with tripeptide-10 citrulline after 24 hours of treatment of Human Follicle Dermal Papilla Cells (HFDPC), and through analysis of Fibroblast Growth Factor-7 (FGF7), Insulin-like Growth Factor-1 (IGF1), and Marker of Proliferation KI-67 (MKI67) gene expression, using Quantitative reverse transcription PCR (RT-qPCR) method.
(§2) Analytical equipment: Microscope, incubator, refrigerated centrifuge, statistical analysis software, micropipettes, pipettes, propipette, rack, quantifier Nano-Drop spectrophotometer, laminar flow hood, QuantStudio 5 (Applied Biosystem) Quantitative real-time PCR, vortex, Burker chamber, heating block, thermocycler, and consumables. […]
(§3) Methodology: Cell number and viability were determined using a Burker chamber and Trypan-Blue staining. […]
(§4) After 24 hours of incubation, the medium was removed, and cells were washed with PBS (phosphate buffered saline). […] 2 min (Ramp rate: 4.4° C./sec) 1 cycle PCR Analysis Mode: Quantification 95° C. […] All data were statistically analysed.

[2] = tested on: Marker of Proliferation KI-67 (MKI67) gene expression; assay: MKI67 gene expression in Human Follicle Dermal Papilla Cells (RT-qPCR); conditions: sample at 5% in culture medium, HFDPC, 24 hours of incubation
Description: as §1, §2, §3, §4

[3] = tested on: Fibroblast Growth Factor-7 (FGF7) gene expression; assay: FGF7 gene expression in Human Follicle Dermal Papilla Cells (RT-qPCR); conditions: HFDPC, 24 hours of incubation
Description: as §1, §2, §3, §4

## acetyl sh-hexapeptide-5 amide acetate [sample 1]
[1]; sample at 1% in culture medium
  IGF1 gene expression increase compared to the untreated control: 286.3±72.0%
[1]; sample at 5% in culture medium
  IGF1 gene expression increase compared to the untreated control: 300.2±45.0%
[2]
  MK167 gene expression increase compared to the untreated control: 100.4±25.2%
[3]; sample at 1% in culture medium
  Fibroblast Growth Factor-7 (FGF7) expression increase compared to the untreated control: 72.3±12.5%
[3]; sample at 5% in culture medium
  Fibroblast Growth Factor-7 (FGF7) expression increase compared to the untreated control: 108.0±8.3%
